Values of other authors as cited in patent publication US20030092774A1, “Methods for treating neoplastic, angiogenic, vascular, fibroblastic, and/or immunosuppressive iregularities of the eye and/or joint via administration of combretastatin based medicaments, and iontophoretic devices for delivering combretastatin based medicaments” (priority 2001, published 2003).

COc1ccc(/C=C\c2cc(OC)c(OC)c(OC)c2)cc1O [combretastatin-A4, (cis)-1-(3′,4′,5′,-trimethoxyphenyl)-2-(3 ″-hydroxy-4″-methoxyphenyl)ethene]
solubility in aqueous solution: practically insoluble
